In patent US20100105685A1, “S-Nitrosothiol Compounds and Related Derivatives” (Galleon Pharmaceuticals, Inc., priority 2006, published 2010):
“Also recorded” adds a separate entry of the source.

Experiments:
[1] = tested on: fentanyl-induced respiratory depression; test: Fentanyl-induced respiratory depression model to assess restoration of ventilatory control; assay type: in vivo, Sprague-Dawley male rats; conditions: rats; for restoration of ventilatory control / reversing the fentanyl-induced respiratory depression: fentanyl 75 to 150 micrograms per kilogram, intravenous infusion
[2] = cited from earlier work
apnea episodes = conditions: cited from earlier work

O=C(O)CCCCN[C@@H](CS)C(=O)O [GLN 10,013]
restoration of ventilatory control / reversing the fentanyl-induced respiratory depression [1]: successfully restores ventilatory control | reversal of respiratory depression, acute phase ([1]; fentanyl-induced, acute phase (0 to 5 minutes)): reverse respiratory depression | reversal of respiratory depression, chronic phases ([1]; fentanyl-induced, chronic phases (10 to 50 minutes)): reverse respiratory depression

O=C(O)CNC(=O)[C@H](CS)Nc1nccs1 [GLN 10,015]
restoration of ventilatory control / reversing the fentanyl-induced respiratory depression [1]: not be effective; also recorded: does not restore

CC(=O)N[C@@H](CS)C(=O)O [N-acetyl-L-cysteine]
absorption after oral administration [2]: poorly absorbed | first pass metabolism by the liver ([2]; oral administration, destroys most of the parent drug): extensive first pass metabolism

CC(=O)Nc1nnc(S(N)(=O)=O)s1 [acetazolamide]
apnea episodes after treatment (apnea episodes; central apnea patients, low doses, after one month of treatment (25.5 pre-treatment)): 6.8 | decrease in apnea episodes (apnea episodes; central apnea patients, low doses, after one month of treatment): 73% | reduction in apnea episodes (apnea episodes; patients that had predominantly obstructive sleep apnea): about 25%
